# Results: patent US20220412989A1, “COMPOSITIONS AND METHODS FOR DETECTING CELLS UNDERGOING FERROPTOSIS USING AN ANTIBODY” (THE TRUSTEES OF COLUMBIA UNIVERSITY IN THE CITY OF NEW YORK, priority 2020, published 2022)
# Legend:
# Assay type in all cases: cell-based, human
# HT-1080 cells [1] = assay: Nucleus area by immunofluorescence (DAPI, CellProfiler)
# Protocol: HT-1080 (ATCC Cat #CRL-7951, RRID:CVCL_0317), A-673, SK-BR-3, SK-LMS-1 and Huh-7 cells were treated with 1 μM RSL3 for 4 h, 15 μM erastin for 8 h, 10 μM IKE for 8 h, 15 μM FINO2 for 8 h, 10 μM FIN56 for 8 h, 100 μM tBuOOH for 8 h, 1 μM staurosporine (STS) for 6 h, 2 μM camptothecin (CPT) for 24 h, 1 μM RSL3+5 μM Fer-1 for 4 h and 10 μM IKE+5 μM Fer-1 for 8 h on poly-lysine-coated cover slips (Sigma Aldrich P4832) in 24-well plate. Media were taken out and the cells were gently washed with PBS^++ (PBS with 1 mM CaCl2) and 0.5 mM MgCl2) twice. The cells were fixed and permeabilized by adding 200 μL/well of 4% paraformaldehyde (PFA) in PBS with 0.1% Triton X-100 (PBT), and incubated at room temperature for 18 min. The cells were then washed with PBT three times. Then the cells were blocked with 5% goat serum (ThermoFisher 50197Z) in PBT for 1 h at room temperature. The cells were incubated with purified mouse monoclonal antibodies (1:5 dilution), mouse mAb 3F3 FMA (1:500 dilution), Transferrin Receptor/CD71 Monoclonal Antibody, Clone: H68.4, Invitrogen (Thermo Fisher Scientific Cat #13-6800, RRID:AB_2533029, 1:250 dilution), Cd71 (D7G9X) XP® Rabbit mAb (Cell Signaling Technology Cat #13113, RRID:AB_2715594, 1:100 dilution), CD71 (3B8 2A1) (Santa Cruz Biotechnology Cat #sc-32272, RRID:AB_627167, 1:50 dilution), Tom20 (FL-145) (Santa Cruz Biotechnology Cat #sc-11415, RRID:AB_2207533, 1:250 dilution), PDI antibody [RL90]—ER Marker (Abcam Cat #ab2792, RRID:AB_303304, 1:100 dilution), Gm130 (D6B1) XP® Rabbit mAb (Cell Signaling Technology Cat #12480, RRID:AB_2797933, 1:3200 dilution), Anti-Malondialdehyde antibody (Abcam Cat #ab6463, RRID:AB_305484, 1:400 dilution), Anti-4 Hydroxynonenal antibody (Abcam Cat #ab46544, RRID:AB_722493, 1:50 dilution), ACSL4 Antibody (F-4) (Santa Cruz Biotechnology Cat #sc-365230, RRID:AB_10843105, 1:50 dilution), mouse mAb 1F83 (1:100 dilution), which specifically recognizes the malondialdehyde (MDA)-lysine adduct 4-methyl-1,4-dihydropyridine-3,5-dicarbaldehyde (MDHDC) (Yamada et al., 2001), in PBT with 1% BSA and 5% goat serum overnight at 4° C. The cells were washed with PBT for 5 min three times. The cells were incubated with Goat anti-Mouse IgG (H+L) Highly Cross-Adsorbed Secondary Antibody, Alexa Fluor 594 (Thermo Fisher Scientific Cat #A-11032, RRID:AB_2534091, 1:200 dilution) or Goat anti-Rabbit IgG (H+L) Highly Cross-Adsorbed Secondary Antibody, Alexa Fluor 488 (Thermo Fisher Scientific Cat #A-11034, RRID:AB_2576217, 1:200 dilution) at room temperature for 1 h. The cells were washed with PBT for 5 min three times. ProLong Diamond antifade mountant with DAPI (ThermoFisher P36962) was added to stain the nucleus. All images were captured on a Zeiss LSM 800 confocal microscope at Plan-Apochromat 63x/1.40 Oil DIC objective with constant laser intensity for all samples. When applicable, line-scan analysis was performed on representative confocal microscopy images using Zeiss LSM software to qualitatively visualize fluorescence overlap.
# The quantification of the intensity of antibodies was analyzed using CellProfiler 3.1.8 (Carpenter et al., 2006) (CellProfiler Image Analysis Software, RRID:SCR_007358). Nuclei were firstly identified as primary objects using global minimum cross entropy strategy. […] Then mean intensities and size areas of nuclei, cytoplasm and plasma membranes were then measured and reported. […]
# HT-1080 cells [2] = assay: Nucleus area by high-content analysis
# Protocol: For the screening with five technical replicates, HT-1080 cells were washed with PBS, trypsinized and resuspended in cell culture medium. The cell suspension (2,000 cells in 50 μl per well) was dispensed into collagen (Sigma-Aldrich, St. Louis, Mass., USA) pre-coated 384-well plates (PerkinElmer 384-well CellCarrierUltra™). 24 h after seeding, medium was exchanged to medium containing 0.3 μM RSL3 (1 mM stock solution) dissolved in 100% dimethyl sulfoxide (DMSO) or DMSO alone. 50 μl medium with 0.3 μM RSL3/DMSO was added per well. The cells were then incubated (37° C.; 5% CO2) for 2.5 h prior to fixation and antibody staining. […] Finally, plates were recorded using the automated Operetta® microscope with the 20× high NA objective for high-resolution images (PerkinElmer, USA). For quantification, three images of each condition were recorded using three channels (Hoechst, Alexa488, TRITC). […] Quantification on cell number, cytoplasmic intensity, nucleus intensity and spot number per cell was performed using the Columbus Software (PerkinElmer, USA).
# Multiparametric image analysis was performed using Columbus Software 2.8.0 (PerkinElmer). […] In a next step we have calculated the morphology and Alexa488 fluorescence intensity in each cell region (nucleus and cytoplasm). […] Each spot was detected as a small region within the corresponding image by having a higher intensity than its surrounding area. […]
# HT-1080 cells [3] = assay: Cell death after RSL3 incubation; details: 1 μM RSL3, 4 h incubation
smiles,measurement,setting,value
"CC(C)Oc1ccc(C(=O)Cn2ccnc2)cc1-n1c(CN2CCN(C(=O)COc3ccc(Cl)cc3)CC2)nc2ccccc2c1=O [IKE, imidazole ketone erastin]",nuclei shrank by (mean nucleus area),"HT-1080 cells [1]; 10 μM IKE, 8 h incubation",12%
"O=S(=O)(NC1CCCCC1)c1ccc2c(c1)C(=NO)c1cc(S(=O)(=O)NC3CCCCC3)ccc1-2 [FIN56, ferroptosis inducer 56]",nuclei shrank by (mean nucleus area),"HT-1080 cells [1]; 10 μM FIN56, 8 h incubation",17%
CCOc1ccccc1-n1c(C(C)N2CCN(C(=O)COc3ccc(Cl)cc3)CC2)nc2ccccc2c1=O (centres unmarked) [erastin],nuclei shrank by (mean nucleus area),"HT-1080 cells [1]; 15 μM erastin, 8 h incubation",21%
"CC1(CCO)CC2(CCC(C(C)(C)C)CC2)OO1 (centres unmarked) [FINO2, ferroptosis inducer endoperoxide]",nuclei shrank by (mean nucleus area),"HT-1080 cells [1]; 15 μM FINO2, 8 h incubation",49%
"COC(=O)c1ccc([C@@H]2c3[nH]c4ccccc4c3C[C@@H](C(=O)OC)N2C(=O)CCl)cc1 [RSL3, (1S, 3R)-RSL3]",decrease of average nucleus area vs DMSO group,HT-1080 cells [2]; RSL3-treated plates 4-6,17%
same,average nucleus area,HT-1080 cells [2]; RSL3-treated plates 4-6 (DMSO group 240 μm^2),200 μm^2
same,HT-1080 cells died,HT-1080 cells [3],30%
same,nuclei shrank by (mean nucleus area),"HT-1080 cells [1]; 1 μM RSL3, 4 h incubation",27%
